Assay results: paper PMC9862026, “In Vivo Toxicity, Redox-Modulating Capacity and Intestinal Permeability of Novel Aroylhydrazone Derivatives as Anti-Tuberculosis Agents” (Pharmaceutics, 2022)
Converted amounts (≈) assume the structure as drawn. “Also recorded” adds a separate entry of the source. Read-outs that look alike come from different tables or passages of the source. Marks after values point to notes of the source that are not given here.

Assays:
male Jcl:ICR mice [1] = test: Sub-acute toxicity, 14 days oral: body weight; type: in vivo; conditions: 125 mg/kg oral, end of 14-day period
Method: (§1) The sub-acute toxicity effects were assessed after repeated (14 days) oral administration to male mice. […] The experiments were performed with male Jcl: ICR mice at the same age of 6 weeks and weighing approximately 30–35 g, in which the substances were administered daily for 14 days orally with a gastric tube at approximately the same time of the day. The compounds were solubilized with Tween 80 (0.1%) in distilled water and administered orally in a volume of 0.1 mL per 10.0 g. Animals were observed daily for behavioral changes and signs of toxicity. All results were compared with the positive control isoniazid (INH).
(§2) Serum biochemical parameters were assessed as follows.

male Jcl:ICR mice [2] = test: Sub-acute toxicity, 14 days oral: complete blood count; type: in vivo
Method: as §1, §2

male Jcl:ICR mice [3] = test: Sub-acute toxicity, 14 days oral: serum biochemical parameters; type: in vivo; conditions: serum
Method: as §1, §2

DPPH assay = conditions: 0.1 mM DPPH in methanol, 30 min
Method: DPPH (2,2′-diphenyl-1-picrylhydrazyl radical) assay analysis of pure compounds was conducted by the method described by Brand-Williams et al.. First, 500 μL of the test solutions were added to 500 μL of a freshly prepared solution of 0.1 mM DPPH in methanol and incubated in the dark for 30 min. Then the absorbance at 517 nm (A517) was measured against a mixture of DPPH solution and methanol (1:1) as a control.
(§3) All data are presented as IC50, which gave 50% inhibition of the activities and compared against the activity of Trolox—a common antioxidant, at the same concentrations.

ABTS•+ assay = conditions: 15 min at 37 °C
Method: ABTS (2,2′-azino-bis (3-ethylbenzthiazoline-6-sulphonic acid) (7.0 mM) was mixed with potassium persulfate (2.45 mM) to obtain the cationic radical (ABTS•+) The solution was diluted in methanol (2 mL ABTS•+ + 58 mL methanol). The absorption at 743 nm of the resulting working solution was 1.1 ± 0.02 AU. Then, 1.425 mL of ABTS•+ working solution was added to 75 μL of the test drugs, and the absorption at 743 nm was measured after 15 min of incubation at 37 °C against methanol. A blank containing 75 μL of water instead of the test extract also was measured against methanol.
as §3

[4] = test system: GSH in the liver homogenate; test: Total glutathione in liver homogenate; type: in vivo, mice; conditions: both doses (125 and 250 mg/kg) oral, 14 days
Method: as §2
According to Rahman et al. total glutathione (tGSH) concentration was determined. In the reaction between GSH and 5,5′-dithiobis-2-nitrobenzoic acid (DTNB), the rate of formation of colored substance, 5′-thio-2-nitrobenzoic acid (TNB), is proportional to the concentration of tGSH in the sample. The maximal absorption of colored TNB is at 412 nm. The concentration of tGSH was calculated using oxidized glutathione as a reference standard and was expressed as ng/mg protein.

[5] = test system: Glutathione peroxidase in the liver supernatant; test: Glutathione peroxidase activity in liver supernatant; type: in vivo, mice; conditions: 125 and 250 mg/kg oral, 14 days; vs controls
Method: as §2
The Glutathione Peroxidase Cellular Activity Assay Kit (Cat. No. CGP1) and Glutathione Reductase Assay Kit (Cat. No. GRSA) were used to measure the activities of glutathione-related enzymes.

female Jcl:ICR mice [6] = conditions: i.p.; for Lethality: female mice
female Jcl:ICR mice [7] = test system: female Jcl:ICR mice
[8] = test system: M. tuberculosis H37Rv reference strain; conditions: cited from earlier work
in vivo = conditions: female, Jcl:ICR, mouse, po
HEK-293T = conditions: cited from earlier work
[9] = test system: MDA in the liver homogenate; test: Endogenous MDA (spontaneous lipid peroxidation) in liver homogenate; conditions: both doses (125 and 250 mg/kg) oral, 14 days
Method: On day 14, the animals were anesthetized with ketamine/ xylazine and decapitated. […] Livers were taken to assess oxidative stress and antioxidant status in the study groups.
For the in vivo experiments (spontaneous lipid peroxidation) the postnuclear homogenates of the liver (mg protein/mL) in 0.15 M KCl—10 mM potassium phosphate buffer, pH 7.2, were heated for 15 min at 100 °C in the presence of 40% TCA + 5N HCl + 2% thiobarbituric acid (2:1:2 v/v) for color developing. After cooling and centrifugation, the absorbance was read at 532 nm against dd H2O as blank. The values were expressed in nmoles malondialdehyde (MDA) per mg protein, with a molar extinction coefficient of 1.56 × 10^−5 M^−1cm^−1.

## COc1cc(C=NNC(=O)c2snnc2C)ccc1O [3a, N′-[(4-hydroxy-3-methoxyphenyl)methylidene]-4-methyl-1,2,3-thiadiazole-5-carbohydrazide]
Male Jcl:ICR mice [1]
  Body weight gain compared to the beginning of the experimental period: 41%
Male Jcl:ICR mice [2]; 125 mg/kg oral
  HCT: 37.2 ± 2.6 ^+ %
  Hgb: 127 ± 5.4 ^+ g/L
  PLT: 979 ± 238 10^9/L
  RBC: 6.84 ± 0.3 ^+ × 10^12/L
  WBC: 6.3 ± 0.36 ^+ × 10^9/L
Male Jcl:ICR mice [2]; 250 mg/kg oral
  HCT: 38.2 ± 1.8 ^+ %
  Hgb: 129 ± 3.8 ^+ g/L
  PLT: 638 ± 181 10^9/L
  RBC: 6.97± 0.3 ^+ × 10^12/L
  WBC: 7.4 ± 0.44 *^+ × 10^9/L
Male Jcl:ICR mice [2]; both doses (125 and 250 mg/kg) oral
  CBC deviations from the reference values: no statistically significant deviations from the reference values
Male Jcl:ICR mice [3]; 125 mg/kg oral
  ALAT: 62.2 ± 3.3 ^+ U/L
  ALB: 26.6 ± 2.2 ^+ g/L
  ASAT: 102 ± 3.6 ^+ U/L
  CREAT: 95.6 ± 6.6 ^+ µmol/L
  D-Bil: 3.4 ± 0.46 ^+ µmol/L
  GLU: 6.3 ± 0.36 mmol/L
  T-Bil: 7.6 ± 0.44 ^+ µmol/L
  TP: 54.3 ± 2.6 ^+ g/L
  UA: 163 ± 23.4 µmol/L
  UREA: 8.8 ± 0.28 ^+ mmol/L
Male Jcl:ICR mice [3]; 250 mg/kg oral
  ALAT: 71.4 ± 3.4 *^+ U/L
  ALB: 27.3 ± 3.1 ^+ g/L
  ASAT: 113 ± 4.1 U/L
  CREAT: 86.4 ± 5.6 ^+ µmol/L
  D-Bil: 4.9 ± 0.34 ^+ µmol/L
  GLU: 7.1 ± 0.24 mmol/L
  T-Bil: 8.3 ± 0.28 ^+ µmol/L
  TP: 58.6 ± 3.6 ^+ g/L
  UA: 194 ± 17.7 µmol/L
  UREA: 11.5 ± 0.22 ^+ mmol/L
DPPH assay
  DPPH Scavenging, IC50: 47.5 * mg/mL
ABTS•+ assay
  ABTS Scavenging, IC50: 89.47 * mg/mL
[4]
  level of GSH in liver homogenate: did not significantly increase the level of GSH
[5]
  activity of GPx in liver: restored the control values of GPx; also recorded: did not statistically significantly alter
Female Jcl:ICR mice [6]; 500 mg/kg b.w.
  Lethality: 0/3
Female Jcl:ICR mice [6]; 1000 mg/kg b.w.
  Lethality: 0/3
Female Jcl:ICR mice [6]; 1500 mg/kg b.w.
  Symptoms before Death Occur: Delayed reflexes, somnolence, lethal outcome
  Time of Occurrence of Fatal Outcome: After 30 h
Female Jcl:ICR mice [6]; 2000 mg/kg b.w.
  Symptoms before Death Occur: Impaired coordination, rapid breathing, lethal outcome
  Time of Occurrence of Fatal Outcome: After 24 h
Female Jcl:ICR mice [6]; 3000 mg/kg b.w.
  Symptoms before Death Occur: Respiratory failure with long pauses, ataxia, piloerection, seizures, lethal outcome
  Time of Occurrence of Fatal Outcome: After 20 h
Female Jcl:ICR mice [7]; mice
  resorption index (IR) = LD50 i.p./LD50 p.os. × 100: ≈ 49%; also recorded: ≈ 98%
Female Jcl:ICR mice [7]; oral administration, highest dose of 3000 mg/kg
  Mortality: No mortality
[8]; ref [23]
  MIC: 0.0730 µM (≈ 0.0213 µg/mL)
In vivo
  LD50 at 14 days: > 2500 mg/kg
HEK-293T
  IC50: 257 µM
[9]
  MDA content in the liver: restoration of MDA to the control levels

## COc1ccc2[nH]cc(C=NNC(=O)c3ccco3)c2c1 [3b, N′-[(5-methoxy-1H-indol-3-yl)methylidene]furan-2-carbohydrazide]
Male Jcl:ICR mice [1]
  Body weight gain compared to the beginning of the experimental period: 44%
Male Jcl:ICR mice [2]; 125 mg/kg oral
  HCT: 39.6 ± 0.8 ^+ %
  Hgb: 132.2 ± 4.2 ^+ g/L
  PLT: 729 ± 203 10^9/L
  RBC: 7.21 ± 0.16 ^+ × 10^12/L
  WBC: 8.2 ± 0.28 *^+ × 10^9/L
Male Jcl:ICR mice [2]; 250 mg/kg oral
  HCT: 40.1 ± 1.2 ^+ %
  Hgb: 130.2 ± 3.7 ^+ g/L
  PLT: 864 ± 212 10^9/L
  RBC: 7.62 ± 0.24 ^+ × 10^12/L
  WBC: 7.7 ± 0.33 *^+ × 10^9/L
Male Jcl:ICR mice [3]; 125 mg/kg oral
  ALAT: 77.2 ± 2.8 *^+ U/L
  ALB: 28.5 ± 3.3 ^+ g/L
  ASAT: 112.1 ± 4.4 U/L
  CREAT: 88.2 ± 3.1 ^+ µmol/L
  D-Bil: 5.1 ± 0.23 ^+ µmol/L
  GLU: 6.8 ± 0.22 mmol/L
  T-Bil: 7.8 ± 0.23 ^+ µmol/L
  TP: 56.6 ± 4.2 ^+ g/L
  UA: 199 ± 14.6 µmol/L
  UREA: 8.7 ± 0.26 ^+ mmol/L
Male Jcl:ICR mice [3]; 250 mg/kg oral
  ALAT: 71.2 ± 1.9 *^+ U/L
  ALB: 28.2 ± 2.8 g/L
  ASAT: 110 ± 3.1 U/L
  CREAT: 92.2 ± 4.4 ^+ µmol/L
  D-Bil: 3.8 ± 0.42 ^+ µmol/L
  GLU: 7.0 ± 0.16 mmol/L
  T-Bil: 8.1 ± 0.32 ^+ µmol/L
  TP: 52.2 ± 5.1 ^+ g/L
  UA: 201.3 ± 12 µmol/L
  UREA: 8.4 ± 0.23 ^+ mmol/L
DPPH assay
  DPPH Scavenging, IC50: 18.69 * mg/mL
ABTS•+ assay
  ABTS Scavenging, IC50: 40.35 * mg/mL
[4]
  level of GSH in liver homogenate: did not significantly increase the level of GSH
[5]
  activity of GPx in liver: restored the control values of GPx; also recorded: did not statistically significantly alter
Female Jcl:ICR mice [6]; 500 mg/kg b.w.
  Lethality: 0/3
Female Jcl:ICR mice [6]; 1000 mg/kg b.w.
  Lethality: 0/3
Female Jcl:ICR mice [6]; 1500 mg/kg b.w.
  Lethality: 0/3
Female Jcl:ICR mice [6]; 2000 mg/kg b.w.
  Lethality: 0/3
Female Jcl:ICR mice [6]; 3000 mg/kg b.w.
  Symptoms before Death Occur: Impaired coordination, rapid breathing, clonic seizures, death
  Time of Occurrence of Fatal Outcome: After 3 h
[8]; ref [22]
  MIC: 0.4412 µM (≈ 0.125 µg/mL)
HEK-293T
  IC50: 280 µM
